# Measurements from patent publication US20220016101A1 (ACADIA Pharmaceuticals Inc., priority 2018, published 2022).
# Several values for one entry are separate records, joined by “and”; a condition that tells them apart may be missing. Equal values may be shown once.
# Columns and labels:
# dopamine transporter = dopamine transporter (Homo sapiens, UniProt Q01959); assay: Receptor profile: affinity (Ki) at DAT; assay type: binding; conditions: data on file
# [1] = target: norepinephrine transporter (Homo sapiens, UniProt P23975); assay: Receptor profile: affinity (Ki) at NET; assay type: binding; conditions: data on file
# Sequence of norepinephrine transporter (P23975 whole entry, species assumed): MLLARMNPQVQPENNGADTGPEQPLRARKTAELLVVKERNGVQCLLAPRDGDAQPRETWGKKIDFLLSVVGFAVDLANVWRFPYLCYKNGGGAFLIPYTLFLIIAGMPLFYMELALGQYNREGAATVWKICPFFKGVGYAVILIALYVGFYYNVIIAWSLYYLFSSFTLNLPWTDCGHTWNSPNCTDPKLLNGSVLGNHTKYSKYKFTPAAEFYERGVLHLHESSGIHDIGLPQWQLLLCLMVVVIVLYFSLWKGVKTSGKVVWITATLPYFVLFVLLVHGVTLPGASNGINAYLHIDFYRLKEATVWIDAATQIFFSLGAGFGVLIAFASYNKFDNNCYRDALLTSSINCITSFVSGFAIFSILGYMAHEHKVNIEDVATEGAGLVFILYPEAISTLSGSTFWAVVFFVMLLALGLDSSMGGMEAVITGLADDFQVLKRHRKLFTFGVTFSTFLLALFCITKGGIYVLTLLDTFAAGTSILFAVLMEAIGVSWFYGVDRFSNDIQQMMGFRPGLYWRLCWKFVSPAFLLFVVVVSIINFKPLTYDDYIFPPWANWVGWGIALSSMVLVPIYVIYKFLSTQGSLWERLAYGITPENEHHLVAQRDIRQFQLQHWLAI
# [2] = test system: patients with MDD and an inadequate response to an SSRI or SNRI; assay: HAMD-17 total score, adjunctive pimavanserin in MDD (Study ACP-103-042); assay type: in vivo, human; conditions: for Response Rate: 50% or greater reduction on HAMD-17
# Text: “Hamilton Depression Scale 17-item (HAMD-17)” is a multiple item questionnaire used to provide an indication of depression, and is known to those skilled in the art. The questionnaire is designed for adults to rate the severity of depression by probing mood, feelings of guilt, suicide ideation, insomnia, work and interests, agitation or retardation, anxiety, weight loss, and somatic symptoms. Each item on the questionnaire is scored on a 3 or 5 point scale, depending on the item, and the total score is compared to the corresponding descriptor. A score of 0-7 is considered to be normal. Scores of 14 or higher indicate moderate, severe, or very severe depression. Assessment time is estimated at 20 minutes. […] Key endpoints were change from baseline to the end of each stage for the HAMD-17 total score and SDS score. The study consisted of an 8- to 21-day screening period, a 10-week double-blind treatment period, and a safety follow up period of up to 30 days. Screening assessments consisted of the SAFER Interview ([…] al, Harv Rev Psychiatry. 2013; 21(5):269-74), which included the MADRS, CGI-S, and MGH ATRQ. […] All patients continued on their SSRI or SNRI at a stable dose for the duration of the study. […] Inadequate treatment response was determined through the administration of the MGH ATRQ administered during the SAFER interview. […] Clinic visits occurred weekly from Weeks 1 through 10. The MADRS was administered at screening and baseline. The HAMD-17, SDS, CGI, and KSS were administered at baseline and weekly during the study. Other endpoints such as the SF-12 were administered at baseline and Weeks 5 and 10. Treatment response was defined as a reduction of 50% from baseline for the HAMD-17 total score, and remission was defined as a HAMD-17 total score […] The determination of the subject's status and eligibility for randomization in Stage 2 was made in a double-blind manner.
# [3] = test system: patients with MDD and an inadequate response to an SSRI or SNRI; assay: HAMD-17 anxiety/somatization subscale score, MDD study; assay type: in vivo, human; conditions: for HAMD-17 anxiety/somatization subscale score LSM (SE) Change from Baseline to Week 5: 34 mg QD + SSRI/SNRI
# Method: Key endpoints were change from baseline to the end of each stage for the HAMD-17 total score and SDS score.
# All patients continued on their SSRI or SNRI at a stable dose for the duration of the study.
# (§1) Clinic visits occurred weekly from Weeks 1 through 10. The MADRS was administered at screening and baseline. The HAMD-17, SDS, CGI, and KSS were administered at baseline and weekly during the study. Other endpoints such as the SF-12 were administered at baseline and Weeks 5 and 10. Treatment response was defined as a reduction of 50% from baseline for the HAMD-17 total score, and remission was defined as a HAMD-17 total score
# A higher HAMD-17 anxiety/somatization subscale score indicates more severe depression with anxiety symptoms.
# [4] = test system: patients with MDD and an inadequate response to an SSRI or SNRI; assay: Karolinska Sleepiness Scale (KSS), MDD study; assay type: in vivo, human; conditions: Week 5 of Stage 1
# Method: “Karolinska Sleepiness Scale (KSS)” is a scale for evaluating subjective sleepiness (Kaida et al. Clinical Neurophysiology 2006, 117, 7, 1574-1581).
# as §1
# [5] = test system: patients with MDD and an inadequate response to an SSRI or SNRI; assay: HAMD-17 Item 14 (sexual interest), Study ACP-103-042; assay type: in vivo, human; conditions: Week 5
# Text: The determination of the subject's status and eligibility for randomization in Stage 2 was made in a double-blind manner.
# [6] = Stage 1, subgroup baseline anxiety/somatization subscale score ≥7
# [7] = Stage 2, subgroup baseline anxiety/somatization subscale score ≥7
# [8] = Stage 1, subgroup baseline subscale score ≥7
# [9] = Stage 2, subgroup baseline subscale score ≥7
# Sequence of dopamine transporter (Q01959 whole entry): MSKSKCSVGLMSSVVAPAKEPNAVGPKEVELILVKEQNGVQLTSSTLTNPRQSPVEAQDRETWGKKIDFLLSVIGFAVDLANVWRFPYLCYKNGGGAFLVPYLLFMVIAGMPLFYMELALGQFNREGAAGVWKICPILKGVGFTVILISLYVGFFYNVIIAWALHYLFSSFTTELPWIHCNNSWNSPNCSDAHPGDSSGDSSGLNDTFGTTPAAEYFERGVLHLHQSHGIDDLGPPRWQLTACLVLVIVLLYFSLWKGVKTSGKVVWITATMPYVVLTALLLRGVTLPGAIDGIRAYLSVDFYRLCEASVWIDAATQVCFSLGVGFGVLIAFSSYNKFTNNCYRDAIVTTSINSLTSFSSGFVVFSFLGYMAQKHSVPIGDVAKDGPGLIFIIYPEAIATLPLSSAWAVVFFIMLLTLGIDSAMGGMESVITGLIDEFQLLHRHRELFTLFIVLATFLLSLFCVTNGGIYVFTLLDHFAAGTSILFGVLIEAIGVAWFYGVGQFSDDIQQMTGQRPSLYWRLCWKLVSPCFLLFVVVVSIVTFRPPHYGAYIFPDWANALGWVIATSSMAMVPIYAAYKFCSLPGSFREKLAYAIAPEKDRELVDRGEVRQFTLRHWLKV
structure (smiles),measurement,setting,value
"CC(C)COc1ccc(CNC(=O)N(Cc2ccc(F)cc2)C2CCN(C)CC2)cc1 [pimavanserin, N-(4-Fluorophenylmethyl)-N-(1-methylpiperidin-4-yl)-N′-(4-(2-methylpropyloxy)phenylmethyl)carbamide]",Ki,dopamine transporter,> 1000 nM
same,Ki,[1],> 1000 nM
same,NNT for remission,[2]; Stage 1,8.1
same,early improvement (reduction from baseline in HAMD-17 total score of 20% or more) vs placebo,[2]; Stage 1,early improvement at week 1 was observed
same,response and remission rates vs placebo,"[2]; Stage 1, Week 2 through Week 5",significantly (p<0.05) greater
same,HAMD-17 total score LSmean (SE) change from baseline to Week 5,"[2]; Stage 1, 34 mg QD + SSRI/SNRI",−11.5 (0.94)
same,Remission Rate,"[2]; Stage 1, 34 mg QD + SSRI/SNRI",23.5%
same,HAMD-17 total score LSmean (SE) change from baseline to Week 5,"[2]; Stage 1, 34 mg QD + SSRI/SNRI, listed as Pimavanserin",−11.5
same,Response Rate,"[2]; Stage 1, 34 mg QD + SSRI/SNRI",52.9%
same,NNT for response,"[2]; Stage 1, response = reduction of 50% from baseline HAMD-17 total score",3.6
same,HAMD-17 total score Diff in LSM (SE) vs placebo,[2]; [6],−6.6 (1.64)
same,HAMD-17 total score effect size (Cohen's d),[2]; [6],0.940
same,HAMD-17 total score LSM (SE) Change from Baseline to Week 5,"[2]; Stage 1, subgroup baseline anxiety/somatization subscale score ≥7, 34 mg QD + SSRI/SNRI",−14.1 (1.39)
same,HAMD-17 total score effect size (Cohen's d),"[2]; Stage 1 Week 5, 34 mg QD + SSRI/SNRI",0.626 and ~0.6
same,HAMD-17 total score effect size (Cohen's d),"[2]; Stage 1 Week 5, 34 mg QD + SSRI/SNRI, listed as Pimavanserin",0.626
same,HAMD-17 total score LSM change from baseline to Week 5,"[2]; Stage 2 (placebo non-responders re-randomized), 34 mg QD + SSRI/SNRI",−2.8
same,HAMD-17 Cohen's d,"[2]; Stage 2, 34 mg QD + SSRI/SNRI",−0.107
same,HAMD-17 difference between pimavanserin and placebo (delta),"[2]; Stage 2, 34 mg QD + SSRI/SNRI",0.5
same,Remission Rate,"[2]; Stage 2, 34 mg QD + SSRI/SNRI",3.4%
same,Response Rate,"[2]; Stage 2, 34 mg QD + SSRI/SNRI",6.9%
same,HAMD-17 total score Diff in LSM (SE) vs placebo,[2]; [7],0.9 (1.84)
same,HAMD-17 total score effect size (Cohen's d),[2]; [7],−0.173
same,HAMD-17 total score LSM (SE) Change from Baseline to Week 5,"[2]; Stage 2, subgroup baseline anxiety/somatization subscale score ≥7, 34 mg QD + SSRI/SNRI",−3.4 (1.25)
same,"HAMD-17 effect size, treatment difference in LSmean change from baseline to Week 10","[2]; continuous treatment for 10 weeks in Stages 1 and 2, 34 mg QD + SSRI/SNRI",0.497
same,HAMD-17 total LSmean difference [standard error] pimavanserin vs placebo,"[2]; overall (weighted Stage 1 and Stage 2), 34 mg QD + SSRI/SNRI",-1.7 (0.85)
same,HAMD-17 anxiety/somatization subscale score Diff in LSM (SE) vs placebo,[3]; Stage 1,−1.5 (0.41)
same,HAMD-17 anxiety/somatization subscale score Effect Size (Cohen's d),[3]; Stage 1,0.634
same,HAMD-17 anxiety/somatization subscale score LSM (SE) Change from Baseline to Week 5,[3]; Stage 1,−3.7 (0.36)
same,HAMD-17 anxiety/somatization subscale score LSM (SE) Change from Baseline to Week 5,[3]; [6],−5.0 (0.56)
same,HAMD-17 anxiety/somatization subscale score Diff in LSM (SE) vs placebo,[3]; [8],−2.2 (0.66)
same,HAMD-17 anxiety/somatization subscale score Effect Size (Cohen's d),[3]; [8],0.781
same,HAMD-17 anxiety/somatization subscale score Diff in LSM (SE) vs placebo,[3]; Stage 2,0.0 (0.48)
same,HAMD-17 anxiety/somatization subscale score Effect Size (Cohen's d),[3]; Stage 2,−0.007
same,HAMD-17 anxiety/somatization subscale score LSM (SE) Change from Baseline to Week 5,[3]; Stage 2,−0.6 (0.33)
same,HAMD-17 anxiety/somatization subscale score LSM (SE) Change from Baseline to Week 5,[3]; [7],−1.3 (0.44)
same,HAMD-17 anxiety/somatization subscale score Diff in LSM (SE) vs placebo,[3]; [9],0.1 (0.66)
same,HAMD-17 anxiety/somatization subscale score Effect Size (Cohen's d),[3]; [9],−0.067
same,KSS effect size,[4],0.627
same,KSS LSmean difference from baseline for pimavanserin vs. placebo,[4]; daytime sleepiness,−1.1 (0.30)
same,HAMD-17 Item 14 (sexual interest) Cohen's d effect size,[5],0.574
same,HAMD-17 Item 14 (sexual interest) LS Mean (SE) change from baseline,[5]; 34 mg QD + SSRI/SNRI,−0.7 (0.12)
